In PubChem BioAssay (NCI):
Where “and” joins values, the source holds several entries; their conditions need not be identical. Equal entries are not always repeated.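 Briefly, cells in 96-well plates were exposed to five compound concentrations for 48 h, and endpoints were estimated by linear interpolation. At the GI50, growth is halved. TGI: total growth inhibition.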

Tests used:
Assay in all cases: NCI anticancer screen, dose series, 48 h
SW-620 colon = tested on: SW-620 colon
SK-OV-3 ovarian = tested on: SK-OV-3 ovarian
HOP-92 NSCLC = tested on: HOP-92 NSCLC
TK-10 renal = tested on: TK-10 renal
NCI-H460 lung = tested on: NCI-H460 lung
SF-539 CNS = tested on: SF-539 CNS
SK-MEL-5 melanoma = tested on: SK-MEL-5 melanoma
UACC-257 melanoma = tested on: UACC-257 melanoma
HT29 colon = tested on: HT29 colon
M14 melanoma = tested on: M14 melanoma

SMILES | GI50 (SW-620 colon) [µM] | TGI (SW-620 colon) | GI50 (SK-OV-3 ovarian) [µM] | TGI (SK-OV-3 ovarian) [µM] | GI50 (HOP-92 NSCLC) [µM] | TGI (HOP-92 NSCLC) [µM] | GI50 (TK-10 renal) [µM] | TGI (TK-10 renal) | GI50 (NCI-H460 lung) [µM] | TGI (NCI-H460 lung) | GI50 (SF-539 CNS) [µM] | TGI (SF-539 CNS) | GI50 (SK-MEL-5 melanoma) [nM] | TGI (SK-MEL-5 melanoma) | GI50 (UACC-257 melanoma) [µM] | TGI (UACC-257 melanoma) | GI50 (HT29 colon) [µM] | TGI (HT29 colon) | GI50 (M14 melanoma) [µM] | TGI (M14 melanoma)
Cc1cc(I)cc(CNCCCN2CCSCC2)c1O | 16.5 | 30.3 µM | 17.9 | 36.4 | 7.57 | 22.3 | 14.2 | 29.3 µM | 14.3 | 29.5 µM | 16.8 | 30.8 µM | 10700 | 22.5 µM | 16.6 | 34.1 µM | 14 | 27.8 µM | 13.9 | 28.4 µM
CCOC(=O)/C=C(/C(=O)OCC)n1cc(Cl)c(=O)n(CC(=O)OCC)c1=O | 3.04 | 4.45 µM and 12.9 µM | 41.4 | > 100 |  | 9.3 | 11.5 | 8.29 µM and 23.8 µM | 35.1 | 25 µM and > 100 µM | 16.9 | 9.69 µM and 32.7 µM |  | 9.28 µM and 30.6 µM | 20.7 | 25 µM and 57.9 µM | 22.5 | 9.38 µM and 52 µM | 18 | 10.4 µM and 40.2 µM
O=C1CNCCCN2CCN(CCCNCC(=O)Nc3ccc(cc3)S(=O)(=O)c3ccc(cc3)NC(=O)CNCCCN3CCN(CCCNCC(=O)Nc4ccc(cc4)S(=O)(=O)c4ccc(cc4)N1)CC3)CC2 |  | > 100 µM |  | > 100 |  | 60.6 |  | 56.5 µM |  | 33.8 µM |  | 44.6 µM |  | > 73 µM |  | 32.7 µM |  | > 67.5 µM |  | > 100 µM
CN1CCN(Cc2ccc(NC(=O)c3cncc(C#Cc4cnc(N)c5ccc(C#N)cc45)c3)cc2C(F)(F)F)CC1 | 0.059 | 1.45 µM | 0.0212 | 0.599 | 0.0244 | 0.344 | 0.21 | 1.47 µM | 0.0976 | 1.1 µM | 0.101 | 0.598 µM | 176 | 0.696 µM | 0.136 | 3.09 µM | 0.0211 | 0.838 µM | 0.0151 | 0.258 µM
CCCCC/C(C=C(C#N)C#N)=C/c1ccccc1 | 3.12 | 10.9 µM | 7.87 | 23.5 | 5.82 | 21.8 | 6.54 | 42.9 µM | 3.22 | 12.2 µM | 5.17 | 17.7 µM | 2680 | 14.2 µM | 17.2 | 47.6 µM | 3.61 | 12.3 µM | 2.45 | 7.29 µM
Cc1ccc2c(c1)C(=O)/C(=C/c1ncc([N+](=O)[O-])n1C)O2 | 0.271 | 2.3 µM | 2.53 | 7.24 | 2.24 | > 19.8 | 3.19 | 11 µM | 2.05 | 5.97 µM | 2.26 | 6.19 µM | 1140 | 2.51 µM | 1.98 | 5.65 µM | 0.491 | 3.36 µM | 1.11 | 4.9 µM
CCCCCCCCCCCCCC(=O)OC1CC(=O)OC1CO (stereo not drawn) |  | > 100 µM |  | > 100 |  | 43.1 |  | > 100 µM |  | > 100 µM |  | > 100 µM |  | > 100 µM |  | > 100 µM |  | > 100 µM |  | 39.7 µM
COc1ccc2ccc3c(c2c1)CN1CCc2cc(OC)c(OC)cc2C1C3 (stereo not drawn) |  | > 100 µM |  | > 100 |  | > 100 |  | > 100 µM |  | > 100 µM |  | > 100 µM |  | > 100 µM |  | > 100 µM |  | > 100 µM |  | > 100 µM
Clc1ccc(C2N3CCCCC3[C@@H]3c4[nH]c5ccccc5c4CCN23)cc1 (stereo partly drawn) |  | > 100 µM |  | > 100 |  | > 100 |  | > 100 µM |  | > 100 µM |  | > 100 µM |  | > 100 µM |  | > 100 µM |  | 49.9 µM |  | > 100 µM
Cn1c(N2NC(=O)C(N=Nc3ccc(S(N)(=O)=O)cc3)C2=O)nc(-c2ccco2)c(C#N)c1=O (stereo not drawn) | 9.23 | 28.6 µM | > 50 | > 50 | 25.5 | > 50 | 8.64 | 33.5 µM | > 50 | > 50 µM | > 50 | > 50 µM | 35300 | > 50 µM | > 50 | > 50 µM | 33.4 | > 50 µM | 21.9 | > 50 µM
Cc1ccc(CS/C(=C\c2ccc([N+](=O)[O-])cc2)C(=O)c2ccc(F)cc2)cc1 | 1.67 | 3.71 µM | 17.7 | > 100 | 14.1 | 41.3 | 15.1 | 32.2 µM | 6.44 | 22.5 µM | 3.22 | 10.8 µM | 2400 | 5.98 µM | 5.61 | 19.9 µM | 1.78 | 4.26 µM | 3.07 | 15.6 µM
CCCCC(=O)OCC1OC(n2cnc3c(=S)nc[nH]c32)C(OC(=O)CCCC)C1OC(=O)CCCC (stereo not drawn) | 1.51 | > 100 µM | 0.636 | > 80.3 | 1 | > 84.5 | 0.608 | > 100 µM | 4.38 | > 100 µM | 2.07 | > 62 µM | 1760 | > 46.5 µM | 11.9 | > 100 µM | 3.64 | > 100 µM | 0.779 | 10.7 µM
Cc1ccc(S(=O)(=O)N(CCOc2ccc(/C(N)=N/Cl)cc2)CCOc2ccc(/C(N)=N\Cl)cc2)cc1 | 26.9 | > 100 µM | 83.3 | > 100 | 17.2 | 89.3 | 40 | > 100 µM | 5.62 | 25.2 µM | 11 | 27.2 µM | 10300 | 26.8 µM | 23.3 | 90.5 µM | 9.8 | > 100 µM | 35.1 | > 100 µM
